Laboratory results published in PubChem BioAssay AID330 (DTP/NCI, 2004).
Inconclusive results and toxic doses are left out. The calls were made as follows: active = survival T/C of 150% or more; inactive = T/C below 125% in these data.

Test system: P388 leukemia ip, CD2F1 mice, survival T/C
Test: NCI In Vivo Anticancer Drug Screen. Data for tumor model P388 Leukemia (intraperitoneal) in CD2F1 (CDF1) mice
Conditions: endpoint: median survival time, higher = longer survival
Method in brief: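 Mice carrying the transplanted tumor received test compound or vehicle. Survival was recorded in each group, and the value is the treated-group measurement divided by that of the vehicle-treated control group.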

[1] = dose: 50.0 mg/kg/injection, schedule: Q01DX009 (ip), vehicle: saline with Tween-80
[2] = dose: 100.0 mg/kg/injection, schedule: Q01DX009 (ip), vehicle: saline with Tween-80
[3] = dose: 200.0 mg/kg/injection, schedule: Q01DX009 (ip), vehicle: saline with Tween-80
[4] = dose: 60.0 mg/kg/injection, schedule: Q01DX005 (ip), vehicle: saline with Tween-80
[5] = dose: 120.0 mg/kg/injection, schedule: Q01DX005 (ip), vehicle: saline with Tween-80
[6] = dose: 240.0 mg/kg/injection, schedule: Q01DX005 (ip), vehicle: saline with Tween-80
[7] = dose: 100.0 mg/kg/injection, schedule: Q04DX003 (ip), vehicle: saline with Tween-80
[8] = dose: 200.0 mg/kg/injection, schedule: Q04DX003 (ip), vehicle: saline with Tween-80
[9] = dose: 100.0 mg/kg/injection, schedule: Q01DX001 (ip), vehicle: saline with Tween-80
[10] = dose: 200.0 mg/kg/injection, schedule: Q01DX001 (ip), vehicle: saline with Tween-80
[11] = dose: 50.0 mg/kg/injection, schedule: Q01DX005 (ip), vehicle: saline with Tween-80
[12] = dose: 100.0 mg/kg/injection, schedule: Q01DX005 (ip), vehicle: saline with Tween-80
[13] = dose: 200.0 mg/kg/injection, schedule: Q01DX005 (ip), vehicle: saline with Tween-80
[14] = dose: 400.0 mg/kg/injection, schedule: Q04DX003 (ip), vehicle: saline with Tween-80

Measured: T/C

CC(=O)n1cc(C2CC(=O)OC3=C2CC(=O)C(C)(C)C3)c2ccccc21 (configuration not stated)
inactive: dose: 25.0 mg/kg/injection, schedule: Q01DX009 (ip), vehicle: saline with Tween-80 100 % of control | [1] 103 % of control | [2] 110 % of control | [3] 113 % of control | dose: 400.0 mg/kg/injection, schedule: Q01DX009 (ip), vehicle: saline with Tween-80 119 % of control

c1ccc(C[N+]23CCC(CC2)CC3)cc1
inactive: dose: 3.13 mg/kg/injection, schedule: Q04DX003 (ip), vehicle: saline 95 % of control | dose: 6.25 mg/kg/injection, schedule: Q04DX003 (ip), vehicle: saline 95 % of control | dose: 12.5 mg/kg/injection, schedule: Q04DX003 (ip), vehicle: saline 100 % of control

CCN(CC)CCN1C(=O)NC2(CCCCC2)C1=O
inactive: [4] 101 % of control | [5] 100 % of control | [6] 99 % of control

CN1C(=O)c2ccccc2Cc2c(NCc3ccccc3)ncnc21
inactive: [1] 108 % of control | [2] 104 % of control | [3] 100 % of control

COc1ccc2nc3cc(Cl)ccc3c(NCCCCNc3c4ccc(Cl)cc4nc4ccc(OC)nc34)c2n1
inactive: [7] 102 % of control | [8] 118 % of control

COc1ccc(NCc2ccc(C)cc2)cc1
inactive: [9] 100 % of control | [10] 108 % of control | dose: 400.0 mg/kg/injection, schedule: Q01DX001 (ip), vehicle: saline with Tween-80 107 % of control

COc1ccc(/C=C2\CCCC3=C2N=C2SCC(=O)N2C3c2ccc(OC)cc2)cc1 (configuration not stated)
inactive: dose: 25.0 mg/kg/injection, schedule: Q04DX003 (ip), vehicle: saline with Tween-80 98 % of control | dose: 50.0 mg/kg/injection, schedule: Q04DX003 (ip), vehicle: saline with Tween-80 92 % of control | [7] 90 % of control

CC(C)(C)N=C(Cc1ccccc1)N1CCOCC1
inactive: [1] 119 % of control | [2] 96 % of control | [3] 90 % of control

COc1ccc(OC)c(/C=N/N=C2\C(=O)Nc3c(Cl)cc(Cl)cc32)c1
inactive: [11] 97 % of control | [12] 98 % of control | [13] 92 % of control

NC(=S)NNCCC(=O)Nc1ccccc1C(F)(F)F
inactive: [4] 94 % of control | [5] 94 % of control | [6] 96 % of control

COc1ccc(C(C)c2cc3c(cc2OC)OCO3)cc1O (configuration not stated)
inactive: dose: 50.0 mg/kg/injection, schedule: Q01DX005 (ip), vehicle: distilled water + Tween-80 111 % of control | dose: 100.0 mg/kg/injection, schedule: Q01DX005 (ip), vehicle: distilled water + Tween-80 102 % of control | dose: 200.0 mg/kg/injection, schedule: Q01DX005 (ip), vehicle: distilled water + Tween-80 105 % of control

CCOC(=O)c1cn(C)c2c1C(O)=C(C(=O)OC)CC(=O)N2
inactive: [7] 95 % of control | [8] 100 % of control | [14] 117 % of control

CCCCCCC[CH2][Sn]([Cl])([CH2]CCCCCCC)[O][Sn]([CH2]CCCCCCC)([CH2]CCCCCCC)[O]C
inactive: dose: 100.0 mg/kg/injection, schedule: Q04DX003 (ip), vehicle: saline 101 % of control | dose: 200.0 mg/kg/injection, schedule: Q04DX003 (ip), vehicle: saline 96 % of control | dose: 400.0 mg/kg/injection, schedule: Q04DX003 (ip), vehicle: saline 98 % of control

COc1ccc(NC(=S)Nc2ccccn2)cc1
inactive: [7] 108 % of control | [8] 95 % of control | [14] 112 % of control

COC(=O)c1c(C(=O)Cc2cc3c(cc2CCN(C)C)OCO3)ccc(OC)c1OC
inactive: dose: 12.5 mg/kg/injection, schedule: Q01DX001 (ip), vehicle: saline + alcohol 99 % of control | dose: 25.0 mg/kg/injection, schedule: Q01DX001 (ip), vehicle: saline + alcohol 100 % of control | dose: 50.0 mg/kg/injection, schedule: Q01DX001 (ip), vehicle: saline + alcohol 101 % of control

O=C([CH-]C(=O)C(F)(F)F)c1ccco1.O=C([CH-]C(=O)C(F)(F)F)c1ccco1.O=C([CH-]C(=O)C(F)(F)F)c1ccco1.[Ru+3]
inactive: [4] 100 % of control | [5] 97 % of control | [6] 89 % of control

C=C1CC(C)(Cl)C(Cl)CC1/C=C/Cl (configuration not stated)
inactive: dose: 1.87 mg/kg/injection, schedule: Q01DX009 (ip), vehicle: saline + alcohol 100 % of control | dose: 3.75 mg/kg/injection, schedule: Q01DX009 (ip), vehicle: saline + alcohol 99 % of control | dose: 7.5 mg/kg/injection, schedule: Q01DX009 (ip), vehicle: saline + alcohol 103 % of control | dose: 15.0 mg/kg/injection, schedule: Q01DX009 (ip), vehicle: saline + alcohol 100 % of control

CC1(C)C2CCC1(C)C(OC(=O)/C=C/c1ccc(O)c(O)c1)C2 (configuration not stated)
inactive: dose: 12.5 mg/kg/injection, schedule: Q01DX009 (ip), vehicle: Klucel (hydroxypropylcellulose) (HPC) 100 % of control | dose: 25.0 mg/kg/injection, schedule: Q01DX009 (ip), vehicle: Klucel (hydroxypropylcellulose) (HPC) 98 % of control | dose: 50.0 mg/kg/injection, schedule: Q01DX009 (ip), vehicle: Klucel (hydroxypropylcellulose) (HPC) 87 % of control | dose: 100.0 mg/kg/injection, schedule: Q01DX009 (ip), vehicle: Klucel (hydroxypropylcellulose) (HPC) 97 % of control

CC(C)(CO)NO
inactive: dose: 50.0 mg/kg/injection, schedule: Q01DX005 (ip), vehicle: saline 106 % of control | dose: 100.0 mg/kg/injection, schedule: Q01DX005 (ip), vehicle: saline 103 % of control | dose: 200.0 mg/kg/injection, schedule: Q01DX005 (ip), vehicle: saline 104 % of control

CC(=O)c1cc(-c2ccc3ccccc3c2)nc2ccccc12
inactive: [11] 96 % of control | [12] 94 % of control | [13] 100 % of control

COc1ccc(/C=N\N=C(/[O-])c2ccc(Cl)cc2)cc1.COc1ccc(/C=N\N=C(/[O-])c2ccc(Cl)cc2)cc1.[Ni+2].[OH3+].[OH3+]
inactive: dose: 100.0 mg/kg/injection, schedule: Q04DX002 (ip), vehicle: saline with Tween-80 92 % of control

Cc1ccc2ncc(C)c(/C=C/c3ccc(N(C)C)cc3)c2c1
inactive: dose: 50.0 mg/kg/injection, schedule: Q01DX001 (ip), vehicle: saline with Tween-80 108 % of control | [9] 112 % of control | [10] 122 % of control
